Legend:
Format in all cases: in vivo
[1] = system: sicklepod (Cassia obtusifolia, CASOB); test: Post-emerge greenhouse herbicide activity screening, phytotoxicity rating
From the text: (§1) A standard greenhouse herbicide activity screening system was used to evaluate the herbicidal efficacy and crop safety of these test compounds. Seven broadleaf weed species including redroot pigweed (Amaranthus retroflexus, AMARE), velvetleaf (Abutilon theophrasti, ABUTH), sicklepod (Cassia obtusifolia, CASOB), ivyleaf morningglory (Ipomoea hederacea, IPOHE), lambsquarters (Chenopodium album, CHEAL), common ragweed (Ambrosia artemisiifolia L., AMBEL), and cocklebur (Xanthium strumarium, XANST) were used as test species. Four grass weed species including green foxtail (Setaria viridis, SETVI), barnyardgrass (Echinochloa crus-galli, ECHCG), johnsongrass (Sorghum halepense, SORHA), and large crabgrass (Digitaria sanguinalis, DIGSA) were also used. In addition, three crop species, field corn (Zea mays L., var. Dekalb 535, CORN), soybean (Glycine max L., var. Pella 86, SOY), and upland rice (Oryza sp., var.Tebonnet, RICE) were included.
(§2) All plants were grown in 10 cm square plastic pots which were filled with a sandy loam soil mix. For pre-emerge tests, seeds were planted one day prior to application of the test compounds. For post-emerge tests, seeds were planted 8-21 days prior to the test to allow emergence and good foliage development prior to application of the test substances. At the time of the post-emerge application, plants of all species were usually at the 2-3 leaf stage of development.
(§3) All test compounds were dissolved in acetone and applied to the test units in a volume of 187 1/ha. Test materials were applied at rates ranging from 15 g ai/ha to 1000 g ai/ha using a track sprayer equipped with a TJ8001E even flow flat fan spray nozzle. Plants were arranged on a shelf so that the top of the canopy (post-emerge) or top of the soil surface (pre-emerge) was 40-45 cm below the nozzle. Pressurized air was used to force the test solution through the nozzle as it was mechanically advanced (via electrically driven chain drive) over the top of all test plants/pots. This application simulates a typical commercial field herbicide application.
(§4) In the post-emerge test, a commercial non-ionic surfactant was also included (0.25% v/v) to enhance wetting of the leaf surfaces of target plants. Immediately after application, test units of the pre-emerge applications were watered at the soil surface to incorporate the test materials. Subsequently, these test units were bottom-watered. Post-emerge test units were always bottom-watered.
(§5) At 14 days after application of the test materials, phytotoxicity ratings were recorded. A rating scale of 0-100 was used as previously described in Research Methods in Weed Science, 2nd edition, B. Truelove, Ed., Southern Weed Science Society, Auburn University, Auburn, Ala., 1977. Briefly, “0” corresponds to no damage and “100” corresponds to complete death of all plants in the test unit. This scale was used both to determine efficacy against weed species and damage to crop species. Herbicide activity data for various compounds of this invention, which are shown by compound No. in Tables I-VI, are shown in Tables VIII-IX.

[2] = system: ivyleaf morningglory (Ipomoea hederacea, IPOHE); test: as above; details: 14 days after application
From the text: as §1, §2, §3, §4, §5

[3] = system: barnyardgrass (Echinochloa crus-galli, ECHCG); test: as above; details: 14 days after application
From the text: as §1, §2, §3, §4, §5

[4] = system: redroot pigweed (Amaranthus retroflexus, AMARE); test: as above
From the text: as §1, §2, §3, §4, §5

[5] = system: large crabgrass (Digitaria sanguinalis, DIGSA); test: as above; details: 14 days after application
From the text: as §1, §2, §3, §4, §5

[6] = system: velvetleaf (Abutilon theophrasti, ABUTH); test: as above; details: 14 days after application
From the text: as §1, §2, §3, §4, §5

[7] = system: lambsquarters (Chenopodium album, CHEAL); test: as above
From the text: as §1, §2, §3, §4, §5

[8] = system: johnsongrass (Sorghum halepense, SORHA); test: as above; details: 14 days after application
From the text: as §1, §2, §3, §4, §5

[9] = system: green foxtail (Setaria viridis, SETVI); test: as above
From the text: as §1, §2, §3, §4, §5

[10] = system: common ragweed (Ambrosia artemisiifolia L., AMBEL); test: as above
From the text: as §1, §2, §3, §4, §5

[11] = system: field corn (Zea mays L., var. Dekalb 535, CORN); test: Post-emerge greenhouse screening, crop safety / corn selectivity (phytotoxicity rating); details: for CORN crop damage, phytotoxicity rating (0-100 scale): 14 days after application
From the text: as §1, §2, §3, §4, §5

[12] = system: upland rice (Oryza sp., var.Tebonnet, RICE); test: Post-emerge greenhouse screening, crop safety (phytotoxicity rating); details: 14 days after application
From the text: as §1, §2, §3, §4, §5

[13] = system: soybean (Glycine max L., var. Pella 86, SOY); test: as above; details: 14 days after application
From the text: as §1, §2, §3, §4, §5

[14] = system: upland rice (Oryza sp., var.Tebonnet, RICE); test: Pre-emerge greenhouse screening, crop safety (phytotoxicity rating); details: 14 days after application
From the text: as §1, §2, §3, §4, §5

[15] = system: field corn (Zea mays L., var. Dekalb 535, CORN); test: as above; details: 14 days after application
From the text: as §1, §2, §3, §4, §5

[16] = system: soybean (Glycine max L., var. Pella 86, SOY); test: as above; details: 14 days after application
From the text: as §1, §2, §3, §4, §5

[17] = system: sicklepod (Cassia obtusifolia, CASOB); test: Pre-emerge greenhouse herbicide activity screening, phytotoxicity rating; details: 14 days after application
From the text: as §1, §2, §3, §4, §5

[18] = system: ivyleaf morningglory (Ipomoea hederacea, IPOHE); test: as above; details: 14 days after application
From the text: as §1, §2, §3, §4, §5

[19] = system: barnyardgrass (Echinochloa crus-galli, ECHCG); test: as above; details: 14 days after application
From the text: as §1, §2, §3, §4, §5

[20] = system: redroot pigweed (Amaranthus retroflexus, AMARE); test: as above; details: 14 days after application
From the text: as §1, §2, §3, §4, §5

[21] = system: large crabgrass (Digitaria sanguinalis, DIGSA); test: as above; details: 14 days after application
From the text: as §1, §2, §3, §4, §5

[22] = system: velvetleaf (Abutilon theophrasti, ABUTH); test: as above; details: 14 days after application
From the text: as §1, §2, §3, §4, §5

[23] = system: lambsquarters (Chenopodium album, CHEAL); test: as above; details: 14 days after application
From the text: as §1, §2, §3, §4, §5

[24] = system: johnsongrass (Sorghum halepense, SORHA); test: as above; details: 14 days after application
From the text: as §1, §2, §3, §4, §5

[25] = system: green foxtail (Setaria viridis, SETVI); test: as above; details: 14 days after application
From the text: as §1, §2, §3, §4, §5

[26] = system: common ragweed (Ambrosia artemisiifolia L., AMBEL); test: as above; details: 14 days after application
From the text: as §1, §2, §3, §4, §5

[27] = 125 g ai/ha, 14 days after application
[28] = 250 g ai/ha, 14 days after application

Fc1cc(Cl)c(Oc2ncccn2)cc1-c1nn2c(c1Br)CCCC2 [Compound 6-2]
25: SOY crop damage, phytotoxicity rating (0-100 scale) ([16]; 125 g ai/ha)
40: CORN crop damage, phytotoxicity rating (0-100 scale) ([15]; 250 g ai/ha) | SOY crop damage, phytotoxicity rating (0-100 scale) ([16]; 250 g ai/ha)
20: CORN crop damage, phytotoxicity rating (0-100 scale) ([15]; 125 g ai/ha)
85: AMBEL phytotoxicity rating (0-100 scale) ([10]; 62.5 g ai/ha) | AMBEL phytotoxicity rating (0-100 scale) [10, 27] | IPOHE phytotoxicity rating (0-100 scale) ([18]; 125 g ai/ha)
90: ECHCG phytotoxicity rating (0-100 scale) ([3]; 125 g ai/ha) | AMBEL phytotoxicity rating (0-100 scale) [10, 28]
80: DIGSA phytotoxicity rating (0-100 scale) ([5]; 250 g ai/ha) | SORHA phytotoxicity rating (0-100 scale) ([8]; 125 g ai/ha) | AMBEL phytotoxicity rating (0-100 scale) ([10]; 31.3 g ai/ha)
60: RICE crop damage, phytotoxicity rating (0-100 scale) ([14]; 125 g ai/ha)
100: CASOB phytotoxicity rating (0-100 scale) ([1]; 31.3 g ai/ha) | CASOB phytotoxicity rating (0-100 scale) ([1]; 62.5 g ai/ha) | CASOB phytotoxicity rating (0-100 scale) [1, 27] | CASOB phytotoxicity rating (0-100 scale) [1, 28] | IPOHE phytotoxicity rating (0-100 scale) ([2]; 125 g ai/ha) | IPOHE phytotoxicity rating (0-100 scale) ([2]; 250 g ai/ha) | AMARE phytotoxicity rating (0-100 scale) ([4]; 31.3 g ai/ha) | AMARE phytotoxicity rating (0-100 scale) ([4]; 62.5 g ai/ha) | AMARE phytotoxicity rating (0-100 scale) [4, 27] | AMARE phytotoxicity rating (0-100 scale) [4, 28] | ABUTH phytotoxicity rating (0-100 scale) ([6]; 125 g ai/ha) | ABUTH phytotoxicity rating (0-100 scale) ([6]; 250 g ai/ha) | CHEAL phytotoxicity rating (0-100 scale) ([7]; 31.3 g ai/ha) | CHEAL phytotoxicity rating (0-100 scale) ([7]; 62.5 g ai/ha) | CHEAL phytotoxicity rating (0-100 scale) [7, 27] | CHEAL phytotoxicity rating (0-100 scale) [7, 28] | SETVI phytotoxicity rating (0-100 scale) ([9]; 31.3 g ai/ha) | SETVI phytotoxicity rating (0-100 scale) ([9]; 62.5 g ai/ha) | SETVI phytotoxicity rating (0-100 scale) [9, 27] | SETVI phytotoxicity rating (0-100 scale) [9, 28] | CASOB phytotoxicity rating (0-100 scale) ([17]; 125 g ai/ha) | CASOB phytotoxicity rating (0-100 scale) ([17]; 250 g ai/ha) | IPOHE phytotoxicity rating (0-100 scale) ([18]; 250 g ai/ha) | ECHCG phytotoxicity rating (0-100 scale) ([19]; 250 g ai/ha) | AMARE phytotoxicity rating (0-100 scale) ([20]; 125 g ai/ha) | AMARE phytotoxicity rating (0-100 scale) ([20]; 250 g ai/ha) | DIGSA phytotoxicity rating (0-100 scale) ([21]; 125 g ai/ha) | DIGSA phytotoxicity rating (0-100 scale) ([21]; 250 g ai/ha) | ABUTH phytotoxicity rating (0-100 scale) ([22]; 125 g ai/ha) | ABUTH phytotoxicity rating (0-100 scale) ([22]; 250 g ai/ha) | CHEAL phytotoxicity rating (0-100 scale) ([23]; 125 g ai/ha) | CHEAL phytotoxicity rating (0-100 scale) ([23]; 250 g ai/ha) | SORHA phytotoxicity rating (0-100 scale) ([24]; 125 g ai/ha) | SORHA phytotoxicity rating (0-100 scale) ([24]; 250 g ai/ha) | SETVI phytotoxicity rating (0-100 scale) ([25]; 125 g ai/ha) | SETVI phytotoxicity rating (0-100 scale) ([25]; 250 g ai/ha) | AMBEL phytotoxicity rating (0-100 scale) ([26]; 250 g ai/ha)
75: DIGSA phytotoxicity rating (0-100 scale) ([5]; 125 g ai/ha) | RICE crop damage, phytotoxicity rating (0-100 scale) ([14]; 250 g ai/ha)
98: RICE crop damage, phytotoxicity rating (0-100 scale) ([12]; 250 g ai/ha)
3: CORN selectivity, phytotoxicity rating (0-100 scale) ([11]; 31.3 g ai/ha)
99: SOY crop damage, phytotoxicity rating (0-100 scale) ([13]; 125 g ai/ha) | SOY crop damage, phytotoxicity rating (0-100 scale) ([13]; 250 g ai/ha) | ECHCG phytotoxicity rating (0-100 scale) ([19]; 125 g ai/ha) | AMBEL phytotoxicity rating (0-100 scale) ([26]; 125 g ai/ha)
10: CORN selectivity, phytotoxicity rating (0-100 scale) ([11]; 62.5 g ai/ha)
95: ECHCG phytotoxicity rating (0-100 scale) ([3]; 250 g ai/ha) | SORHA phytotoxicity rating (0-100 scale) ([8]; 250 g ai/ha) | RICE crop damage, phytotoxicity rating (0-100 scale) ([12]; 125 g ai/ha)
15: CORN crop damage, phytotoxicity rating (0-100 scale) ([11]; 125 g ai/ha) | CORN crop damage, phytotoxicity rating (0-100 scale) ([11]; 250 g ai/ha)

Reference: US6613718B2, “Aryl ether derivatives and processes for their preparation and herbicidal and desiccant compositions containing them” (Ishihara Sangyo Kaisha, Ltd., priority 2001, dated 2003)
